# Measurements as given in patent US20220324906A1 (Novo Nordisk A/S, priority 2014, published 2022).
# Columns and labels:
# MuLV virus = experiment: Inactivation of MuLV with caprylic acid at different concentrations and pH; settings: for Titre of MuLV virus after inactivation with caprylic acid: MuLV content 1.2 × 10^6; for Titre of MuLV after inactivating of MuLV with 60 mM caprylic acid: MuLV content 2.7 × 10^5
# Text: The inactivation of MuLV was investigated at different concentrations of caprylic and at different pH (Table 6).
# eMuLV virus = experiment: Clearance of spiked eMuLV by chromatography with a caprylic acid wash; settings: 30 min
# Procedure: A cell line media containing a recombinant human Fab-fragment was filtered through a 0.22 μm and then spiked with eMuLV virus. The spiked media was applied to a column packed with Capto L media (GE-Healthcare). […] Process temperature was 15-25° C. […] A cell line media containing a recombinant human antibody (IgG1) was filtered through a 0.22 μm filter and spiked with eMuLV virus. The spiked media was loaded on a column packed with Protein A (Mab Select SuRe, Ge Healthcare). […] After pH had stabilised the washing continued for 30 min. After 3 other washings (equilibration buffer, 50 mmol/kg phosphate, 1 mol/kg NaCl and then equilibration buffer), the mAb was eluted from the column with a formate buffer, pH 3.5. […] The process temperature was 15-25° C. A cell line media containing a recombinant human antibody (IgG4) was filtered through a 0.22 μm filter and spiked with eMuLV virus. The spiked media was loaded on a column packed with Protein A (Mab Select SuRe, Ge Healthcare). […] After pH had stabilised the washing continued for 30 min. After 3 other washing (equilibration buffer, 50 mmol/kg phosphate, 1 mol/kg NaCl) and then equilibration buffer), the mAb was eluted from the column with a formate buffer, pH 3.5. […] The process temperature was 15-25° C. A cell line media containing a recombinant human antibody (IgG1) was filtered through a 0.22 μm filter and spiked with eMuLV virus. The spiked media was loaded on a column packed with Protein A (Mab Select SuRe, Ge Healthcare). […] After pH had stabilised the washing continued for 30 min. After 3 other washings (equilibration buffer, 50 mmol/kg phosphate, 1 mol/kg NaCl and then equilibration buffer), the mAb was eluted from the column with a formate buffer, pH 3.5. […] The process temperature was 2-8° C.
# [1] = 60 mM, pH 6.0, free caprylic acid 4.3 mM, 1 minute
# [2] = 60 mM, pH 6.0, free caprylic acid 4.3 mM, 5 minutes
# [3] = 60 mM, pH 6.0, free caprylic acid 4.3 mM, 10 minutes
# [4] = 60 mM, pH 6.0, free caprylic acid 4.3 mM, 30 minutes
smiles,measurement,setting,value
CCCCCCCC(=O)O [caprylic acid],Titre of MuLV virus after inactivation with caprylic acid,"MuLV virus; 10 mM, pH 5.0, free caprylic acid 4.4 mM, 5 minutes",0
same,Titre of MuLV virus after inactivation with caprylic acid,"MuLV virus; 10 mM, pH 5.0, free caprylic acid 4.4 mM, 10 minutes",0
same,Titre of MuLV virus after inactivation with caprylic acid,"MuLV virus; 10 mM, pH 5.0, free caprylic acid 4.4 mM, 30 minutes",0
same,Titre of MuLV virus after inactivation with caprylic acid,"MuLV virus; 20 mM, pH 5.5, free caprylic acid 3.9 mM, 5 minutes",0
same,Titre of MuLV virus after inactivation with caprylic acid,"MuLV virus; 20 mM, pH 5.5, free caprylic acid 3.9 mM, 10 minutes",0
same,Titre of MuLV virus after inactivation with caprylic acid,"MuLV virus; 20 mM, pH 5.5, free caprylic acid 3.9 mM, 30 minutes",0
same,inactivation of MuLV,"MuLV virus; 60 mM caprylic acid, pH range 5.9 to 6.3, within 5 minutes",more than 5.4 log 10
same,Titre of MuLV after inactivating of MuLV with 60 mM caprylic acid,"MuLV virus; 60 mM, pH 5.9, free caprylic acid 5.3 mM, 5 minutes",0
same,Titre of MuLV after inactivating of MuLV with 60 mM caprylic acid,"MuLV virus; 60 mM, pH 5.9, free caprylic acid 5.3 mM, 10 minutes",0
same,Titre of MuLV after inactivating of MuLV with 60 mM caprylic acid,"MuLV virus; 60 mM, pH 5.9, free caprylic acid 5.3 mM, 30 minutes",0
same,Titre of MuLV virus after inactivation with caprylic acid,MuLV virus; [1],0
same,Titre of MuLV after inactivating of MuLV with 60 mM caprylic acid,MuLV virus; [1],2.5
same,Titre of MuLV virus after inactivation with caprylic acid,MuLV virus; [2],0
same,Titre of MuLV after inactivating of MuLV with 60 mM caprylic acid,MuLV virus; [2],0
same,Titre of MuLV virus after inactivation with caprylic acid,MuLV virus; [3],0
same,Titre of MuLV after inactivating of MuLV with 60 mM caprylic acid,MuLV virus; [3],0
same,Titre of MuLV virus after inactivation with caprylic acid,MuLV virus; [4],0
same,Titre of MuLV after inactivating of MuLV with 60 mM caprylic acid,MuLV virus; [4],0
same,Titre of MuLV after inactivating of MuLV with 60 mM caprylic acid,"MuLV virus; 60 mM, pH 6.1, free caprylic acid 3.5 mM, 1 minute",0
same,Titre of MuLV after inactivating of MuLV with 60 mM caprylic acid,"MuLV virus; 60 mM, pH 6.1, free caprylic acid 3.5 mM, 5 minutes",0
same,Titre of MuLV after inactivating of MuLV with 60 mM caprylic acid,"MuLV virus; 60 mM, pH 6.1, free caprylic acid 3.5 mM, 10 minutes",0
same,Titre of MuLV after inactivating of MuLV with 60 mM caprylic acid,"MuLV virus; 60 mM, pH 6.1, free caprylic acid 3.5 mM, 30 minutes",0
same,Titre of MuLV after inactivating of MuLV with 60 mM caprylic acid,"MuLV virus; 60 mM, pH 6.2, free caprylic acid 2.8 mM, 5 minutes",0
same,Titre of MuLV after inactivating of MuLV with 60 mM caprylic acid,"MuLV virus; 60 mM, pH 6.2, free caprylic acid 2.8 mM, 10 minutes",0
same,Titre of MuLV after inactivating of MuLV with 60 mM caprylic acid,"MuLV virus; 60 mM, pH 6.2, free caprylic acid 2.8 mM, 30 minutes",0
same,Titre of MuLV after inactivating of MuLV with 60 mM caprylic acid,"MuLV virus; 60 mM, pH 6.3, free caprylic acid 2.2 mM, 5 minutes",0
same,Titre of MuLV after inactivating of MuLV with 60 mM caprylic acid,"MuLV virus; 60 mM, pH 6.3, free caprylic acid 2.2 mM, 10 minutes",0
same,Titre of MuLV after inactivating of MuLV with 60 mM caprylic acid,"MuLV virus; 60 mM, pH 6.3, free caprylic acid 2.2 mM, 30 minutes",0
same,inactivation of MuLV,"MuLV virus; caprylic acid concentrations of about 2 mM, after 30 minutes",partial inactivation
same,inactivation of MuLV,MuLV virus; free caprylic acid below 1 mM,no inactivation was observed
same,inactivation of MuLV,"MuLV virus; pH range 5.0 to 6.0, free caprylic acid at least about 4 mM, after 5 minutes",complete inactivation
same,LRV,"eMuLV virus; Example 2: IgG1, Protein A, 32 mmol/kg caprylate buffer pH 5.8 (2.9 mM free caprylic acid), 15-25° C.",>3.0
same,LRV,"eMuLV virus; Example 3: IgG4, Protein A, 32 mmol/kg caprylate buffer pH 5.8 (2.9 mM free caprylic acid), 15-25° C.",>2.8
same,LRV,"eMuLV virus; Example 4: IgG1, Protein A, 35 mmol/kg caprylate buffer pH 5.7 (3.9 mM free caprylic acid), 2-8° C.",>3.0
